Source: patent publication US9328099B2, “Cyanomethylpyrazole carboxamides as janus kinase inhibitors” (Merck Sharp & Dohme Corp., priority 2011, dated 2016)
Where two headings read alike, the source gives them in different places.

What was measured:
JAK2 = JAK2 (Homo sapiens (Human), UniProt O60674); test: Jak Biochemical HTRF Assay, JAK2
Description: (§1) Jak Biochemical HTRF Assay Protocol
(§2) Subsequent reagent additions employed an Agilent Bravo.

JAK1 = JAK1 (Homo sapiens (Human), UniProt P23458); test: Jak Biochemical HTRF Assay, JAK1; settings: read-out: JAK1 IC50
Chain of JAK1 (P23458 875-1153): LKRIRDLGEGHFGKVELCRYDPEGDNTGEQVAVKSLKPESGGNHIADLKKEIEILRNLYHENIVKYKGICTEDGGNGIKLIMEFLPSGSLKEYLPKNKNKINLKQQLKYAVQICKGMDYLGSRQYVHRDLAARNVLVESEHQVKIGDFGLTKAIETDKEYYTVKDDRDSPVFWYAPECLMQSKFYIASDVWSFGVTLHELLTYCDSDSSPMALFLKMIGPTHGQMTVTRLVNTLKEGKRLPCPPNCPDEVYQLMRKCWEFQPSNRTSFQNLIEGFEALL
Description: as §1, §2

[1] = HTRF biochemical assay, GST-tagged catalytic domain, top concentration tested […]

Chain of JAK2 (O60674 849-1124): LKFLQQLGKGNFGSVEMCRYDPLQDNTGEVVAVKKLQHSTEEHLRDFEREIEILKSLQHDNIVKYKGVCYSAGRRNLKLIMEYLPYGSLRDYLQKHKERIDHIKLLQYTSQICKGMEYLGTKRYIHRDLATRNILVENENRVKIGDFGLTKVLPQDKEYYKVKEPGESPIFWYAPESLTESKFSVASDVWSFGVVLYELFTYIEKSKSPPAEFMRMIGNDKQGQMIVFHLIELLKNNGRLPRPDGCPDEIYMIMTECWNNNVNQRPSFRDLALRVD

SMILES | IC50 (JAK2; [1]) [nM] | IC50 (JAK1; [1]) [nM] | further results
COC(=O)C(C)(C)OC(=O)N1CCC(CC#N)(n2cc(C(N)=O)c(Nc3ccc(F)cc3)n2)CC1 [Example 29-A, 1-Methoxy-2-methyl-1-oxopropan-2-yl4-{4-carbamoyl-3-[(4-fluorophenyl)amino]-1H-pyrazol-1-yl}-4-(cyanomethyl)piperidine-1-carboxylate] |  |  | IC50 (JAK2): 40 nM
N#CCC1(n2cc(C(N)=O)c(Nc3ccc(S(=O)(=O)C(F)F)cc3)n2)CCC(Nc2ccc(O)cc2)CC1 (stereo not drawn) [Example 40-7, Cis or trans 1-{1-(cyanomethyl)-4-[(4-hydroxyphenyl)amino]cyclohexyl}-3-({4-[(difluoromethyl)sulfonyl]phenyl}amino)-1H-pyrazole-4-carboxamide] |  |  | IC50 (JAK2): 36 nM
N#CCC1(n2cc(C(N)=O)c(Nc3ccc(S(=O)(=O)C(F)F)cc3)n2)CCC(Nc2cccnc2)CC1 (stereo not drawn) [Example 40-9, Cis or trans 1-[1-(cyanomethyl)-4-(pyridin-3-ylamino)cyclohexyl]-3-({4-[(difluoromethyl)sulfonyl]phenyl}amino)-1H-pyrazole-4-carboxamide] |  |  | IC50 (JAK2): 352 nM
N#CCC1(n2cc(C(N)=O)c(Nc3ccc(S(=O)(=O)C(F)F)cc3)n2)CCC(Nc2cccc(O)c2)CC1 (stereo not drawn) [Example 40-14, Cis or trans 1-{1-(cyanomethyl)-4-[(3-hydroxyphenyl)amino]cyclohexyl}-3-({4-[(difluoromethyl)sulfonyl]phenyl}amino)-1H-pyrazole-4-carboxamide] |  |  | IC50 (JAK2): 65 nM
N#CCC1(n2cc(C(N)=O)c(Nc3ccc(S(=O)(=O)C(F)F)cc3)n2)CCC(Nc2ccccc2O)CC1 (stereo not drawn) [Example 40-32, Cis or trans 1-{1-(cyanomethyl)-4-[(2-hydroxyphenyl)amino]cyclohexyl}-3-({4-[(difluoromethyl)sulfonyl]phenyl}amino)-1H-pyrazole-4-carboxamide] |  |  | IC50 (JAK2): 177 nM
N#CCC1(n2cc(C(N)=O)c(Nc3ccnc(F)c3)n2)CCC(NC2CCOCC2)CC1 (stereo not drawn) [Example 40-38, Cis or trans 1-[1-(cyanomethyl)-4-(tetrahydro-2H-pyran-4-ylamino)cyclohexyl]-3-[(2-fluoropyridin-4-yl)amino]-1H-pyrazole-4-carboxamide] |  |  | IC50 (JAK2): 103 nM
N#CCC1(n2cc(C(N)=O)c(Nc3ccc(S(=O)(=O)C(F)F)cc3)n2)CCC(Nc2ccccc2O)CC1 (stereo not drawn) [Example 40-48, Cis or trans 1-{1-(cyanomethyl)-4-[(2-hydroxyphenyl)amino]cyclohexyl}-3-({4-[(difluoromethyl)sulfonyl]phenyl}amino)-1H-pyrazole-4-carboxamide] |  |  | IC50 (JAK1): 0.4 nM
N#CCC1(n2cc(C(N)=O)c(Nc3ccc(F)cc3)n2)CCC(Nc2cc(F)ccc2F)CC1 (stereo not drawn) [Example 40-50, Cis and trans 1-{1-(cyanomethyl)-4-[(2,5-difluorophenyl)amino]cyclohexyl}-3-[(4-fluorophenyl)amino]-1H-pyrazole-4-carboxamide] |  | 0.1 | 
N#CCC1(n2cc(C(N)=O)c(Nc3ccc(F)cc3)n2)CCC(NC2CCOCC2)CC1 (stereo not drawn) [Example 40-65, Cis or trans 1-[1-(cyanomethyl)-4-(tetrahydro-2H-pyran-4-ylamino)cyclohexyl]-3-[(4-fluorophenyl)amino]-1H-pyrazole-4-carboxamide] |  |  | IC50 (JAK2): 129 nM
N#CCC1(n2cc(C(N)=O)c(Nc3ccc(S(=O)(=O)C(F)F)cc3)n2)CCC(N2CC(F)C2)CC1 (stereo not drawn) [Example 40-91, Cis or trans 1-[1-(cyanomethyl)-4-(3-fluoroazetidin-1-yl)cyclohexyl]-3-({4-[(difluoromethyl)sulfonyl]phenyl}amino)-1H-pyrazole-4-carboxamide] |  | 67 | 
N#CCC1(n2cc(C(N)=O)c(Nc3ccc(F)cc3)n2)CCC(NCc2ccc(C#N)cc2)CC1 (stereo not drawn) [Example 40-97, Cis or trans 1-{4-[(4-cyanobenzyl)amino]-1-(cyanomethyl)cyclohexyl}-3-[(4-fluorophenyl)amino]-1H-pyrazole-4-carboxamide] |  | 25 | 
N#CCC1(n2cc(C(N)=O)c(Nc3ccc(S(=O)(=O)C(F)F)cc3)n2)CCC(N2CC(F)C2)CC1 (stereo not drawn) [Example 40-105, Cis or trans 1-[1-(cyanomethyl)-4-(3-fluoroazetidin-1-yl)cyclohexyl]-3-({4-[(difluoromethyl)sulfonyl]phenyl}amino)-1H-pyrazole-4-carboxamide] |  | 0.08 | 
N#CCC1(n2cc(C(N)=O)c(Nc3ccnc(F)c3)n2)CCC(NCc2cccc(O)c2)CC1 (stereo not drawn) [Example 41-5, Cis or trans 1-{1-(cyanomethyl)-4-[(3-hydroxybenzyl)amino]cyclohexyl}-3-[(2-fluoropyridin-4-yl)amino]-1H-pyrazole-4-carboxamide] |  | 10 | 
N#CC[C@]1(n2cc(C(N)=O)c(Nc3ccnc(F)c3)n2)CC[C@@H](NS(=O)(=O)c2cccc(F)c2)CC1 [Example 42, cis-1-(1-(Cyanomethyl)-4-(3-fluorophenylsulfonamido)cyclohexyl)-3-((2-fluoropyridin-4-yl)amino)-1H-pyrazole-4-carboxamide] |  | 8 | 
N#CC[C@]1(n2cc(C(N)=O)c(Nc3ccccc3)n2)CC[C@@H](C(=O)NCC(F)(F)F)CC1 [Example 45-1, cis or trans 1-{1-(cyanomethyl)-4-[(2,2,2-trifluoroethyl)carbamoyl]cyclohexyl}-3-(phenylamino)-1H-pyrazole-4-carboxamide] |  |  | IC50 (JAK2): 301 nM

Continued, in another order:

IC50 (JAK2; [1]) [nM] | IC50 (JAK1; [1]) [nM] | SMILES | further results
21 |  | C[C@H]1CN(C(=O)OC(C)(C)C)CC[C@]1(CC#N)n1cc(C(N)=O)c(Nc2ccccc2)n1 (racemic) [Example 2-9, tert-Butyl (3S,4R and 3R,4S)-4-[4-carbamoyl-3-(phenylamino)-1H-pyrazol-1-yl]-4-(cyanomethyl)-3-methylpiperidine-1-carboxylate] | 
21 | 2 | C[C@H]1C[C@](CC#N)(n2cc(C(N)=O)c(Nc3ccccc3)n2)CCN1C(=O)OC(C)(C)C (racemic) [Example 2-10] | 
614 | 29 | C[C@@H]1C[C@](CC#N)(n2cc(C(N)=O)c(Nc3ccccc3)n2)CCN1C(=O)OC(C)(C)C (racemic) [Example 2-11, tert-butyl (2R,4R and 2S,4S)-4-[4-carbamoyl-3-(phenylamino)-1H-pyrazol-1-yl]-4-(cyanomethyl)-2-methylpiperidine-1-carboxylate] | 
24 |  | C[C@H]1CN(C(=O)OC(C)(C)C)CC[C@]1(CC#N)n1cc(C(N)=O)c(Nc2ccccc2)n1 (single isomer, unassigned) [Example 48-1, tert-Butyl (3S,4R or 3R,4S)-4-[4-carbamoyl-3-(phenylamino)-1H-pyrazol-1-yl]-4-(cyanomethyl)-3-methylpiperidine-1-carboxylate] | 
487 |  | C[C@H]1CN(C(=O)OC(C)(C)C)CC[C@]1(CC#N)n1cc(C(N)=O)c(Nc2ccccc2)n1 (single isomer, unassigned) [Example 48-2, tert-Butyl (3S,4R or 3R,4S)-4-[4-carbamoyl-3-(phenylamino)-1H-pyrazol-1-yl]-4-(cyanomethyl)-3-methylpiperidine-1-carboxylate] | 
47 |  | N#CCC1(n2cc(C(N)=O)c(Nc3ccc(F)cc3)n2)CCN(C(=O)OC2CCOC2)CC1 (single isomer, unassigned) [Example 50-1, (3S or 3R)-tetrahydrofuran-3-yl 4-{4-carbamoyl-3-[(4-fluorophenyl)amino]-1H-pyrazol-1-yl}-4-(cyanomethyl)piperidine-1-carboxylate] | 
62 |  | N#CCC1(n2cc(C(N)=O)c(Nc3ccc(F)cc3)n2)CCN(C(=O)OC2CCOC2)CC1 (single isomer, unassigned) [Example 50-2, (3S or 3R)-tetrahydrofuran-3-yl4-{4-carbamoyl-3-[(4-fluorophenyl)amino]-1H-pyrazol-1-yl}-4-(cyanomethyl)piperidine-1-carboxylate] | 
133 |  | N#CCC1(n2cc(C(N)=O)c(Nc3ccccc3)n2)CCOCC1 [Example 6-5, 1-[4-(cyanomethyl)tetrahydro-2H-pyran-4-yl]-3-(phenylamino)-1H-pyrazole-4-carboxamide] | 
37 |  | N#CCC1(n2cc(C(N)=O)c(Nc3ccc(F)cc3)n2)CCN(C(=O)OC2CCOC2)CC1 (centres unmarked) [Example 30-46, tetrahydrofuran-3-yl 4-{4-carbamoyl-3-[(4-fluorophenyl)amino]-1H-pyrazol-1-yl}-4-(cyanomethyl)piperidine-1-carboxylate] | 
39 |  | N#CCC1(n2cc(C(N)=O)c(Nc3ccc(F)cc3)n2)CCC(=O)CC1 [Example 40-1A, 1-(1-(Cyanomethyl)-4-oxocyclohexyl)-3-((4-fluorophenyl)amino)-1H-pyrazole-4-carboxamide] | 
 | 69 | N#CCC1(n2cc(C(N)=O)c(Nc3ccc(F)cc3)n2)CCC(NCCO)CC1 (stereo not drawn) [Example 40-68, Cis or trans 1-{1-(cyanomethyl)-4-[(2-hydroxyethyl)amino]cyclohexyl}-3-[(4-fluorophenyl)amino]-1H-pyrazole-4-carboxamide] | 
 | 12 | CNC1CCC(CC#N)(n2cc(C(N)=O)c(Nc3ccc(F)cc3)n2)CC1 (stereo not drawn) [Example 40-78, Cis or trans 1-[1-(cyanomethyl)-4-(methylamino)cyclohexyl]-3-[(4-fluorophenyl)amino]-1H-pyrazole-4-carboxamide] | 
 | 0.06 | N#CCC1(n2cc(C(N)=O)c(Nc3ccnc(F)c3)n2)CCC(Nc2ccccc2)CC1 (stereo not drawn) [Example 40-86, Cis or trans 1-[1-(cyanomethyl)-4-(phenylamino)cyclohexyl]-3-[(2-fluoropyridin-4-yl)amino]-1H-pyrazole-4-carboxamide] | 
 | 1 | N#CCC1(n2cc(C(N)=O)c(Nc3ccc(F)cc3)n2)CCC(NCC(F)(F)F)CC1 (stereo not drawn) [Example 40-98, Cis or trans 1-{1-(cyanomethyl)-4-[(2,2,2-trifluoroethyl)amino]cyclohexyl}-3-[(4-fluorophenyl)amino]-1H-pyrazole-4-carboxamide] | 
 | 18 | N#CCC1(n2cc(C(N)=O)c(Nc3ccc(F)cc3)n2)CCC(NCC(F)(F)F)CC1 (stereo not drawn) [Example 40-101, Cis or trans 1-{1-(cyanomethyl)-4-[(2,2,2-trifluoroethyl)amino]cyclohexyl}-3-[(4-fluorophenyl)amino]-1H-pyrazole-4-carboxamide] | 
